What was measured:
[1] = biological target: aurora-related kinase 2 (Homo sapiens, UniProt Q96GD4); details: concentrations of up to 100 μM; cited from earlier work
[2] = system: casein kinase 1; details: concentrations of up to 100 μM; cited from earlier work
[3] = biological target: ATR (Homo sapiens, UniProt Q13535); details: concentrations of up to 100 μM; cited from earlier work
[4] = system: Bmf; test: Bmf protein level by flow cytometry in RA T cells; assay type: cell-based, human; details: treated vs untreated
Procedure: (§1) FIG. 8. The DNA-PKcs-JNK pathway upregulates the apoptogenic molecules Bim and Bmf in RA CD4+ T cells. CD4+CD45RO− T cells were isolated from the peripheral blood of 6 controls and 6 RA patients. Cells were maintained in culture without mitogenic stimulation for 72 h. (A) Puma, Noxa, Bim and Bmf transcript levels in freshly isolated cells were quantified by qPCR. Data are presented as mean±SEM. (B) Flow cytometry analysis of Bim levels in control and RA naïve T cells after 72 h of culture. Expression of Bim protein in n=5 RA and n=5 controls samples is given as MFI of Alexa Fluor 488 Bim. (C) Flow cytometry analysis of Bmf levels in control and RA naïve T cells. Expression of Bmf protein in n=6 RA and n=4 controls samples is given as MFI of PE Bmf. (D) Bcl-2 protein levels were analyzed by flow cytometry. Expression of Bcl-2 protein in n=6 RA and n=6 control samples is given as MFI of FITC Bcl-2. (E) Bim protein level in the absence and presence of the DNA-PKcs inhibitor were analyzed by flow cytometry in samples from 4 RA patients. […]
(§2) For intracellular staining, cells were fixed directly with 1.5% formaldehyde for 10 min at room temperature and resuspended in 90% methanol. […] Proteins or 8-oxoguanine expression were detected by an LSRII flow cytometer (BD Biosciences). Data were analyzed by FlowJo software (Tree Star Inc., Ashland, Oreg.). […]

[5] = biological target: ATM (Homo sapiens, UniProt Q13315); details: concentrations of up to 100 μM; cited from earlier work
Chain of ATM (Q13315 whole entry, species assumed): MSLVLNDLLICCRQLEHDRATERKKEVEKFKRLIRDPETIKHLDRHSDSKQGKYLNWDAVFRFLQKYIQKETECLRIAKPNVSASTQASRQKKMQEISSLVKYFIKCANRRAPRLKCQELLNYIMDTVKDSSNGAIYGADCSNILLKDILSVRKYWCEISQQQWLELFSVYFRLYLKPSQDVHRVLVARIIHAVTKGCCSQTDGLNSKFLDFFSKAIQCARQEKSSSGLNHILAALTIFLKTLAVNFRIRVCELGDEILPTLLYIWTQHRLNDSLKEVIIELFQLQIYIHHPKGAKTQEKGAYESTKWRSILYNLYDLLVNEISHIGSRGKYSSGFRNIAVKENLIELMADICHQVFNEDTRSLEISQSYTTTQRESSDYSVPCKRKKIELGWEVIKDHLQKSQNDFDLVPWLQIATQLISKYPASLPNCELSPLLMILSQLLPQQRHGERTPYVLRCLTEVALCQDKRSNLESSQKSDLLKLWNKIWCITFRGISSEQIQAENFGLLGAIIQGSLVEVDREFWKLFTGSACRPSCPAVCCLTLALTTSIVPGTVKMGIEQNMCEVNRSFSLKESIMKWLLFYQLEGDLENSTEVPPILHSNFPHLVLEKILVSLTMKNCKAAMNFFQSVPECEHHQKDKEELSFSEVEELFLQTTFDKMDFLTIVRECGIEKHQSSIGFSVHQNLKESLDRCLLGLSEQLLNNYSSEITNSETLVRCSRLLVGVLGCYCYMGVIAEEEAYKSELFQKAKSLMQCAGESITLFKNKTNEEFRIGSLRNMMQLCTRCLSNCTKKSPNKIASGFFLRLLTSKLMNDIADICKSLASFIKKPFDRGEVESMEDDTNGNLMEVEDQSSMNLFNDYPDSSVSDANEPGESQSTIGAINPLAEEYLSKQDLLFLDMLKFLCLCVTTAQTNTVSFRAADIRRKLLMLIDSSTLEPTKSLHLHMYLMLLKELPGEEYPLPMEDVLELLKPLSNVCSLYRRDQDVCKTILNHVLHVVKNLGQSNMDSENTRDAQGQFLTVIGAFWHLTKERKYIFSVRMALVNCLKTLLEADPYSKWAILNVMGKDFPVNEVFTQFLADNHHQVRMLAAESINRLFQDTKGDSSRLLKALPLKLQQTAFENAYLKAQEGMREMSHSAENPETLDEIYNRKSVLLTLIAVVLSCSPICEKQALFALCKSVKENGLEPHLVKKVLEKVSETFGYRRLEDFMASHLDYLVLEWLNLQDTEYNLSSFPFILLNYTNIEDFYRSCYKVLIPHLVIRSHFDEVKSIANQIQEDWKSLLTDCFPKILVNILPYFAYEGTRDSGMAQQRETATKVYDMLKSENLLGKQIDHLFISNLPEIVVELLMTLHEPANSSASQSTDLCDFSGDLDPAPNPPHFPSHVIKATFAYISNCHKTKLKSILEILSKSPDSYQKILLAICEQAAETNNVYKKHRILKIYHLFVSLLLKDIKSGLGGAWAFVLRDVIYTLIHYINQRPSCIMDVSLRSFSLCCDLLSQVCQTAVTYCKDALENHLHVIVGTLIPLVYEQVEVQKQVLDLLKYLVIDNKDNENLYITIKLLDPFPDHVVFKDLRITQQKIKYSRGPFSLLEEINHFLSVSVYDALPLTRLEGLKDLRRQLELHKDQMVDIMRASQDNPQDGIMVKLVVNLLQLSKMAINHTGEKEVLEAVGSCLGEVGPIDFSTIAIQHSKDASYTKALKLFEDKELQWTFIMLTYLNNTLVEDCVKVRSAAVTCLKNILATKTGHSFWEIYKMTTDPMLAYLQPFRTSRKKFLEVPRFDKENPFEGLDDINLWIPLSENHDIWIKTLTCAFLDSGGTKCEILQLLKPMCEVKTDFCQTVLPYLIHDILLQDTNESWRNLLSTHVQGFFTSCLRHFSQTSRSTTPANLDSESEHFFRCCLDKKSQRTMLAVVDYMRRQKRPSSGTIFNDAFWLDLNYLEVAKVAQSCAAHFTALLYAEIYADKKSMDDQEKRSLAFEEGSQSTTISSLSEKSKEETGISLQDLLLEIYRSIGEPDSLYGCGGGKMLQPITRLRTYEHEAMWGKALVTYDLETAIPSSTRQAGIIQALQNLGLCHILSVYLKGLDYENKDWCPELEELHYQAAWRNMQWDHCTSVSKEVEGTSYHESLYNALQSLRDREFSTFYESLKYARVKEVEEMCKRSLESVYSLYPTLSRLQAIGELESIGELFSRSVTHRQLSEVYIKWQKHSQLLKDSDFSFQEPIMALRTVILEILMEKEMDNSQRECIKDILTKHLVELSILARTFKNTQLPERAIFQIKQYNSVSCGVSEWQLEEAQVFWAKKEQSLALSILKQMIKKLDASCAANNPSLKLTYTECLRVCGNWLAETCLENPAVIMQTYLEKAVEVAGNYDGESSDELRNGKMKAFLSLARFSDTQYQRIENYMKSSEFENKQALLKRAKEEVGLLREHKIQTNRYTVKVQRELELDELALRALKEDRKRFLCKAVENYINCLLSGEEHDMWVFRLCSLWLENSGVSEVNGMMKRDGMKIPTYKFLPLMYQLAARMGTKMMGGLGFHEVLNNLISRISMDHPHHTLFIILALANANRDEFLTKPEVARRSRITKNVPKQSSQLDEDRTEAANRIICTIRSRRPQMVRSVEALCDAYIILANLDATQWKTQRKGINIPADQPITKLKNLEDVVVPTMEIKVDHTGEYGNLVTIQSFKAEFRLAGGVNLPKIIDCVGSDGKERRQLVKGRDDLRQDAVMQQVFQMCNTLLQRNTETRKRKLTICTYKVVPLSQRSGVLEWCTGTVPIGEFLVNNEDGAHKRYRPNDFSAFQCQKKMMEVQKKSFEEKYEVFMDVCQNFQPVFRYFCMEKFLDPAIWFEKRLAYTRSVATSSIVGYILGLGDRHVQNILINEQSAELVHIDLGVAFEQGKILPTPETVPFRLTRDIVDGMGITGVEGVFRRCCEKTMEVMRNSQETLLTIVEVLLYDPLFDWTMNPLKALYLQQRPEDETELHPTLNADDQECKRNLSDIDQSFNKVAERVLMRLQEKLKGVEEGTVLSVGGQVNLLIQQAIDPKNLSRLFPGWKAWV

[6] = system: protein kinase A; details: concentrations of up to 100 μM; cited from earlier work
[7] = biological target: T1, checkpoint protein kinase 1 (Homo sapiens, UniProt O14757); details: concentrations of up to 100 μM; cited from earlier work
T1 sequence (O14757 1-476): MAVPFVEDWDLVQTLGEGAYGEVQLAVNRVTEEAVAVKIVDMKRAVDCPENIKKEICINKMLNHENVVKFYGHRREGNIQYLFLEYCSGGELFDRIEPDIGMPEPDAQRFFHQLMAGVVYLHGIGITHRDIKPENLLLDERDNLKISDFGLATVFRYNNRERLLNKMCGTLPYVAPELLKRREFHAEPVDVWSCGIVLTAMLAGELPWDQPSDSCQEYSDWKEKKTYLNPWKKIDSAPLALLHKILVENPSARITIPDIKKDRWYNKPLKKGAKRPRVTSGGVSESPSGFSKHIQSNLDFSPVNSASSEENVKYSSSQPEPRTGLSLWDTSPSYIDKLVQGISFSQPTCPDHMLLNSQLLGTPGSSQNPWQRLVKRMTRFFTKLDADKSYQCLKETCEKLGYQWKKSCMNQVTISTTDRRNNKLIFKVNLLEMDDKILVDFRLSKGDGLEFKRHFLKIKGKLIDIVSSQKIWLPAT

[8] = system: Bim; test: Bim protein level by flow cytometry in RA T cells; assay type: cell-based, human; details: treated vs untreated
Procedure: as §1, §2

[9] = system: protein kinase C; details: concentrations of up to 100 μM; cited from earlier work
[10] = biological target: Rous sarcoma tyrosine kinase (Homo sapiens, UniProt P12931); details: concentrations of up to 100 μM; cited from earlier work
Chain of Rous sarcoma tyrosine kinase (P12931 whole entry): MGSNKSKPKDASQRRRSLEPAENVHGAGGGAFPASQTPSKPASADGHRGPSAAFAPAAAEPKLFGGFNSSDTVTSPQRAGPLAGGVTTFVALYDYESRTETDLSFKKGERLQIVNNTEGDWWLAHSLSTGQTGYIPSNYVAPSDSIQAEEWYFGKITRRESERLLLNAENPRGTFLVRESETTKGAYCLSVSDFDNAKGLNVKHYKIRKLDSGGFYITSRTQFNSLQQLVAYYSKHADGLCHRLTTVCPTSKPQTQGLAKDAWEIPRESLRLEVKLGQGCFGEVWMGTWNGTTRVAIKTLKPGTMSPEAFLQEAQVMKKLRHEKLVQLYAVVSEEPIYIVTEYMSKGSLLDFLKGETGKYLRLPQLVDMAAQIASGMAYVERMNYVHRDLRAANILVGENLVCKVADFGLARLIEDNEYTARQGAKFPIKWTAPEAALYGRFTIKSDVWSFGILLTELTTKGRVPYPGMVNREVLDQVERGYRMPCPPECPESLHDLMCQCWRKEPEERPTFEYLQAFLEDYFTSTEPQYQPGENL

Chain of aurora-related kinase 2 (Q96GD4 whole entry): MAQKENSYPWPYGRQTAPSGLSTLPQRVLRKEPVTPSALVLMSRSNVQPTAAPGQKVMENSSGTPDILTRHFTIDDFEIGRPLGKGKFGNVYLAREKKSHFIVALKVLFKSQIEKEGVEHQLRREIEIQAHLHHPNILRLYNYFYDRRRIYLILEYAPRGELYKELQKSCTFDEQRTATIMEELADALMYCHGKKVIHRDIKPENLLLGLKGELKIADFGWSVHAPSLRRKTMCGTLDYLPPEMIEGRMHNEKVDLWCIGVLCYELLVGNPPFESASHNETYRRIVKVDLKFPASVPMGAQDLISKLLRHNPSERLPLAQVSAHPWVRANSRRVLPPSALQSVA

Question: With `CC(=O)c1ccc(N2CCOCC2)cc1O` [IC86621, 1-(2-hydroxy-4-morpholin-4-ylphenyl)ethanone] as the molecule, how does the “activity against aurora-related kinase 2” value [1] read?
Answer: neither activity

Question: What about the “activity against casein kinase 1” value [2] of the same molecule?
Answer: neither activity

Question: And the “activity against ATR” value [3]?
Answer: neither activity

Question: And the “intracellular Bmf levels” value [4]?
Answer: reduced

Question: And the “activity against ATM” value [5]?
Answer: neither activity

Question: What about the “activity against protein kinase A” value [6] of the same molecule?
Answer: neither activity

Question: What about the “activity against checkpoint protein kinase 1” value [7] of the same molecule?
Answer: neither activity

Question: What about the “intracellular Bim levels” value [8] of the same molecule?
Answer: reduced

Question: What about the “activity against protein kinase C” value [9] of the same molecule?
Answer: neither activity

Question: What about the “activity against Rous sarcoma tyrosine kinase” value [10] of the same molecule?
Answer: neither activity

Source: patent publication US9511086B2, “Method for improving immune system function by administering agents that inhibit DNA-dependent protein kinase-directed apoptosis” (The Board of Trustees of the Leland Stanford Junior …, priority 2010, dated 2016)
